Assay results published in US20170265463A1, “SPORICIDAL COMPOSITION” (CASE WESTERN RESERVE UNIVERSITY, priority 2016, published 2017).

Tests used:
[1] = system: Clostridium difficile spores (VA11, VA17, ATCC 43593); assay: Effect of altered pH on sporicidal activity of alcohol (spore suspension, log10CFU reduction); type: cell-based; settings: 70% alcohol acidified to pH<2 (pH 1.5), 5 minutes, room temperature (FIG. 7A)
Protocol: (room temperature). B. subtilis, B. thuringiensis, and three strains of C. difficile spores were tested (described above in Spore Strains and Growth Conditions). The reaction was quenched by neutralizing 1:1 in Dey-Engley neutralization broth (BD Biosciences, San Jose, Calif., USA). Neutralized samples were serial diluted in deionized water, drop-plated, and cultured as described above in Spore Strains and Growth Conditions.
The reaction was quenched by neutralizing 1:1 in Dey-Engley neutralization broth (BD Biosciences, San Jose, Calif.). Neutralized samples were serially diluted in deionized water, drop-plated, and cultured as described previously. To increase the sensitivity of enumeration for samples with high levels of spore killing, 1 mL of the neutralized spore suspensions were spread-plated.

[2] = system: B. subtilis spores; settings: 70% ethanol, no pH alteration, 80° C., 60 minutes
Protocol: (§1) To determine the effect of elevated temperature on the sporicidal efficacy of ethanol, ten microliters of spores (˜10^6 CFU) were incubated in one mL of 70% ethanol or deionized water at about 22° C. (room temperature), 55° C. or 80° C. The pH was not altered for these experiments. B. subtilis, B. thuringiensis, and VA11 and VA17 C. difficile spores were tested (described above in Spore Strains and Growth Conditions). After 0, 5, 10, 20, 30 and 60 minutes of incubation at the appropriate temperature, aliquots of each spore suspension were serial diluted in deionized water, drop-plated, and cultured as described above in Spore Strains and Growth Conditions. Log10CFU reduction of spores was determined by calculating the difference in log10CFU recovered from baseline (spores incubated in water) and experimental groups (spores incubated in ethanol).

[3] = system: C. difficile spores (strains VA11 and VA17); settings: 70% ethanol, no pH alteration
Protocol: as §1

[4] = system: B. thuringiensis spores; settings: 70% ethanol, no pH alteration, 80° C., 60 minutes
Protocol: as §1

[5] = system: B. subtilis spores; settings: room temperature, 1, 5, 10 minutes
Protocol: (§2) To assess whether acidified ethanol truly kills spores or only renders them incapable of germination, recovery of killed spores was assessed by incubation in lysozyme or dodecylamine which bypass germinant receptors. To assess whether acidified ethanol kills spores through alteration in the permeability of the dormant spores' inner membrane barrier, we evaluated whether spore killing occurs in parallel with dipicolinic acid (DPA) release. C. difficile (VA17), B. thuringiensis and B. subtilis spores were suspended in water, water altered to pH 1.5, 70% ethanol, 70% ethanol altered to pH 1.5, 3.0 or 3.0 with increased ionic strength, and 1 mM dodecylamine (induces DPA release in spores of several species). After 1, 5, and 10 minutes of incubation at room temperature (about 22° C.), DPA release was assessed as previously described. […] Fluorescence was measured using a plate reader (SpectraMaxM2, Bucher Biotec, Basel, Switzerland) with the following settings: time resolved fluorescence (delay 50 μs, interval 1200 μs) at an excitation wavelength of 272 nm, emission wavelength of 545 nm, and 5 endpoint readings per sample at 22° C. To determine percent DPA release, relative fluorescence units (RFU) of test solutions were compared to the RFU of total spore DPA content (supernatant of 10^7 CFU spores suspended in water boiled for 30 minutes) as previously described.

[6] = system: B. thuringiensis spores; settings: room temperature, 1, 5, 10 minutes
Protocol: as §2

[7] = system: toxigenic C. difficile spores; design: species or system Clostridium difficile; settings: applied as a liquid or wipe
Text: Reduction of toxigenic C. difficile spores inoculated on gloves of volunteers was compared after 30 or 60 second exposures to the sporicidal ethanol formulation, 70% ethanol, and 1:10 or 1:100 dilutions of household bleach; the solutions were applied both as a liquid solution and as a wipe. We also examined the efficacy of the sporicidal ethanol formulation for elimination of spore contamination from the gloves of healthcare personnel interacting with C. difficile infection (CDI) patients or their environment. To determine the potential for the disinfectants to damage clothing, the solutions were applied to pieces of colored cloth.

[8] = system: C. difficile (VA17) spores; assay: Dipicolinic acid (DPA) release, terbium fluorescence; type: cell-based, Clostridium difficile; settings: room temperature, within 10 minutes; compared to water, 70% ethanol and pH 1.5 water
Protocol: as §2

[9] = system: spores; assay: Other antibacterial compounds in combination with acidified ethanol (sporicidal activity); type: cell-based; settings: compared with addition of peracetic acid
[10] = system: C. difficile (VA17) spores; assay: Effect of addition of dilute peracetic acid on sporicidal activity of acidified ethanol; type: cell-based, Clostridium difficile; settings: peracetic acid alone at 450, 650 and 1500 ppm, 3 minute dwell time
Protocol: (§3) The effect of addition of peracetic acid on activity of acidified ethanol against C. difficile (VA17) and B. subtilis was tested at room temperature (about 22° C.). The pH of specified test solutions was adjusted to 2.5 or 1.5 with hydrochloric acid (HCl). Ten microliters of spores (about 10^6 CFU) were inoculated into one mL of water (baseline), pH adjusted ethanol, peracetic acid at 450, 650, or 1500 ppm, pH adjusted peracetic acid at 450 and 650 ppm, ethanol plus peracetic acid at 450 and 650 ppm, and pH adjusted ethanol plus peracetic acid at 450 and 650 ppm. Spore suspensions were incubated at room temperature for three minutes. The reaction was quenched by neutralizing 1:1 in Dey-Engley neutralization broth (BD Biosciences). […] Experiments were performed in triplicate.
(§4) The effect of the addition of dilute PAA on the activity of acidified ethanol against C. difficile strain VA17 and B. subtilis was tested at 22° C. The pH of specified test solutions was adjusted to 2.5 or 1.5 with hydrochloric acid. Ten μL of spores (˜10^6 CFU) were inoculated into one mL of water (baseline), pH adjusted ethanol, PAA at 450, 650, or 1500 ppm, pH adjusted PAA at 450 and 650 ppm, ethanol plus PAA at 450 and 650 ppm, and pH adjusted ethanol plus PAA at 450 and 650 ppm and incubated for 3 minutes. The reaction was quenched by neutralizing 1:1 in Dey-Engley neutralization broth. […]

[11] = system: non-toxigenic C. difficile spores (ATCC 43593); assay: Reduction of C. difficile spores on hands of volunteers (fingerpad method, modified ASTM E 2276-10); type: in vivo, Clostridium difficile; settings: Example 3; P>0.05
Protocol: A modification of the “Standard Test Method for Determining the Bacteria-Eliminating Effectiveness of Hygienic Handwash and Handrub Agents Using the Fingerpads of Adults” (American Society for Testing and Materials E 2276-10) was used to determine the efficacy of test solutions against non-toxigenic C. difficile spores. Each fingerpad of both hands were contaminated with 10 μL of a liquid inoculum containing 6 log10CFU of ATCC 43593 spores. The fingerpads were rubbed together until the inoculum was dry. Hand contamination levels were measured using the fingerpad sampling method. In brief, the fingerpads of each hand were rubbed with slight friction against the bottom of a 150 mm×15 mm Petri dish filled with 25 mL of Dey-Engley neutralizer (BD Biosciences, San Jose, Calif., USA) for 30 seconds. […] Log10 reductions were calculated by subtracting log10 CFU recovered after hand hygiene treatment from log10 CFU recovered from hands without treatment.
A crossover design was used such that each volunteer was exposed to three of the disinfection procedures. […] The person reading the plates to quantify spore counts was blinded to the test product that was used. […]
Similar experiments were conducted to assess the efficacy of dilute peracetic acid-containing solutions and acidified ethanol solutions at 42° C. […] Reductions in spore counts were then determined as described previously. […]

[12] = in-use concentrations of surface disinfectants (~1500 ppm); cited from earlier work
[13] = system: B. subtilis spores; assay: Effect of addition of dilute peracetic acid on sporicidal activity of acidified ethanol; type: cell-based, Bacillus subtilis; settings: peracetic acid alone at 450, 650 and 1500 ppm, 3 minute dwell time
Protocol: as §3, §4

## CCCO [1-propanol]
[1]
  Sporicidal activity against C. difficile spores on acidification of the alcohol: induced sporicidal activity

## CC(C)O [2-propanol]
[1]
  Sporicidal activity against C. difficile spores on acidification of the alcohol: induced sporicidal activity

## CCO [70% ethanol, ethanol]
[2]
  Log10CFU reduction of B. subtilis spores: > 4 log10CFU
[3]; 55° C., 60 minutes
  Log10CFU reduction of C. difficile spores: 1 log10CFU
[3]; 80° C., 10 minutes
  Detectable C. difficile spores: no C. difficile spores were detectable
[4]
  Log10CFU reduction of B. thuringiensis spores: > 5 log10CFU
[5]
  DPA release from B. subtilis spores: did not
[6]
  DPA release from B. thuringiensis spores: low levels of baseline DPA release
[7]
  Reduction in spores on gloves: < 1 log
[8]
  DPA release from C. difficile spores: low levels of baseline DPA release

## [O][Cl+][O-] [chlorine dioxide]
[9]
  Enhancement of sporicidal activity on addition to acidified ethanol: did not result in similar enhancement of sporicidal activity

## [Cu] [copper]
[9]
  Enhancement of sporicidal activity on addition to acidified ethanol: did not result in similar enhancement of sporicidal activity

## II [iodine]
[9]
  Enhancement of sporicidal activity on addition to acidified ethanol: did not result in similar enhancement of sporicidal activity

## CC(=O)OO [peracetic acid]
[10]
  Reduction of C. difficile spores: in a dose-dependent fashion
[11]
  Reduction in C. difficile spores on hands compared with soap and water hand wash: not significantly different
[12]
  Skin irritation: does not cause skin irritation
[13]
  Reduction of B. subtilis spores: in a dose-dependent fashion

## OCl [sodium hypochlorite]
[9]
  Enhancement of sporicidal activity on addition to acidified ethanol: did not result in similar enhancement of sporicidal activity
